ChEMBL document CHEMBL3526115, “Differences in the pharmacokinetics of 4-amino-3-chlorophenyl hydrogen sulfate, a metabolite of resatorvid, in rats and dogs” (Drug Metab Dispos, 2012)

Assays:
[1] = Elimination half life in iv dosed dog plasma; assay type: ADME, organism-based, Canis lupus familiaris; settings: read-out: beta t1/2 (converted)
[2] = Elimination half life in iv dosed rat plasma; assay type: ADME, organism-based; settings: read-out: beta t1/2 (converted)
[3] = Dissociation constant, pKa of the compound; assay type: physicochemical
[4] = Half life in rat plasma at 5 mg/kg; assay type: ADME, organism-based; set-up: dose 5 mg/kg
[5] = Half life in dog plasma at 5 mg/kg; assay type: ADME, organism-based, Canis lupus familiaris; set-up: dose 5 mg/kg
[6] = Half life in human plasma at 5 mg/kg; assay type: ADME, organism-based; set-up: dose 5 mg/kg

| Compound | half-life [1] [h] | half-life [2] [h] | pKa [3] | half-life [4] [h] | half-life [5] [h] | half-life [6] [h] |
| --- | --- | --- | --- | --- | --- | --- |
| CCOC(=O)C1=CCCC[C@H]1S(=O)(=O)N[14c]1[14cH][14cH][14c](F)[14cH][14c]1Cl | 158 | 5.6 |  |  |  |  |
| Nc1ccc(OS(=O)(=O)O)cc1Cl |  |  | 2.4 |  |  |  |
| Cc1cc(Cl)ccc1OCC(=O)O [METAXON] |  |  |  | 6 | 63 | 11 |
| O=C(O)COc1ccc(Cl)cc1Cl [2,4-DICHLOROPHENOXYACETIC ACID] |  |  |  | < 1 | 92 | 12 |
